# Test results: patent US20080102111A1, “Anticancer Composition for Oral Use Comprising Liposome Containing Phytosterols and Prevention or Treatment for Cancer Using the Liposome” (priority 2005, published 2008)
# System: B16BL6 melanoma cells
# Test: Metastasis-inhibiting activity in B16BL6 melanoma cells by the liposome compositions (lung colony count)
# Format: in vivo, C57BL6/J mice
# Settings: lung surface colonies on 21st day; 0.2 mL oral once per day up to 6th day; B16BL6 cells i.v. 3×10^4/animal on 7th day
# Experimental: Twenty 5-week old C57BL6/J mice were divided into four groups. The control group received 0.2 mL phosphate-buffered physiological saline (PBS) once per day by forced oral administration up to and including the 6th day of keeping. In like manner, the liposome composition of Example 1 was orally administered instead of the PBS to the group designated as the liposomized β-sitosterol group; an aqueous suspension of ordinary, unliposomized β-sitosterol (contained the same amount of β-sitosterol as the liposomized β-sitosterol administered to the liposomized β-sitosterol group) was orally administered instead of the PBS to the group designated as the β-sitosterol group; and the liposome composition of Comparative Example 1 was orally administered instead of the PBS to the group designated as the liposomized cholesterol group. B16BL6 melanoma cells suspended in serum-free medium were administered intravenously (3×10^4/0.2 ml/animal) on the 7th day of keeping. The mice were dissected on the 21st day of keeping and the lungs were extirpated; the lung surfaces were inspected and the number of colonies was counted.
structure (smiles),measurement,value
"CC[C@H](CC[C@@H](C)[C@H]1CC[C@H]2[C@@H]3CC=C4C[C@@H](O)CC[C@]4(C)[C@H]3CC[C@]12C)C(C)C [β-Sitosterol, β-sitosterol]",Average number of colonies,43
